From patent US20130052143A1, “LIQUID PREPARATION FOR ORAL ADMINISTRATION TO BE USED IN CT COLONOGRAPHY, AND COMPOSITION FOR DIGESTIVE TRACT IMAGING” (Ajinomoto Co., Inc., priority 2010, published 2013)

Settings: in vivo
Text: In the insufflation to inflate the intestinal tract, a carbon dioxide gas (CO2) was supplied by using a hand operated double balloon pump through the transanal route. […] No anticonvulsive agent was used.
The procedure of the imaging was such that: firstly, the posture of the examinee was set to the left lateral decubitus position; a tube for insufflation was inserted; and a gas was supplied to confirm that smooth insufflation was possible. Next, the posture of the examinee was set to the abdominal position; the insufflation was conducted until the examinee had claimed a strong feeling of fullness or the pressure inside the intestinal tract had reached 25 mmHg; scanography was performed to confirm that the large intestine had been sufficiently inflated; and thereafter the CT image was taken. After taking the image of the abdominal position, the posture of the examinee was set to the dorsal position, and scanography was again performed to take the CT image in the dorsal position. At this time, if the inflation of the large intestine had been insufficient, additional insufflation was conducted. After the completion of the CT image taking, colon endoscopy was conducted to see the circumstances of the residual feces and residual liquid in the large intestine by eye. The CT image was taken under the charge of a clinical X-ray technician.

- examinees who felt abdominal pains: 50.0%
SMILES: O=C=O [CO2, carbon dioxide gas]
